Assay results taken from PubChem BioAssay AID1329 (NMMLSC, 2008).
Calls of active or inactive are those of the source. No rule for the calls is given here.

Each compound was assayed against Induced myeloid leukemia cell differentiation protein Mcl-1 (Homo sapiens) (UniProt Q07820) (assay: modulators of Bim peptide binding to Mcl-1, dose response, biochemical, bead-based flow cytometry, multiplexed, human (AID 1329)). Details: Bim peptide-Mcl-1 binding, MCF.
Chain of Induced myeloid leukemia cell differentiation protein Mcl-1 (Homo sapiens) (Q07820 whole entry, looked up): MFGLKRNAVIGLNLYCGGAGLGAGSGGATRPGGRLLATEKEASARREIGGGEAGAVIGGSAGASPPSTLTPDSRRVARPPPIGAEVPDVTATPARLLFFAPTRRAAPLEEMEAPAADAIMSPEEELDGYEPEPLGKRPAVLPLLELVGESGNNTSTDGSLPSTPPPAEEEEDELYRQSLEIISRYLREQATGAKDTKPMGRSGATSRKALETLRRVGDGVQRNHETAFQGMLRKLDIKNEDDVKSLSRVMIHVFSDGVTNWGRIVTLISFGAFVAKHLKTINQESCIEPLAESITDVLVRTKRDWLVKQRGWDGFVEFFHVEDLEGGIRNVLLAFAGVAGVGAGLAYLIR

SMILES	percent span
Cc1ccc(C(=O)N(CCCN(C)C)c2nc3ccc(Cl)cc3s2)cc1C	inactive
Cc1ccc(-n2[nH]c(C)c(/C=N/Nc3ccc([N+](=O)[O-])cc3[N+](=O)[O-])c2=O)cc1C	inactive
Cc1cc(Cl)ccc1N=c1ssnc1Cl	inactive
O=c1c2c(n3nnnc3n1Cc1ccccc1)-c1ccccc1CC21CCCC1	inactive
CCOC(=O)C1(Cc2cccc(OC)c2)CCN(Cc2cccc(OC)c2OC)CC1	inactive
COc1ccc(OC)c(NC(=O)CCCN2C(=S)NC(C)(C)CC2C)c1 (stereo not given)	inactive
COC(=O)c1cc(OC)c(OC)cc1NC(=O)Nc1cccc(C(C)=O)c1	inactive
C=CCSc1nc(N)c2c(C)c(C)sc2n1	inactive
O=C(N/N=C/c1ccncc1)c1cccc(NC(=O)c2ccccc2Cl)c1	inactive
COC(=O)CCC(=O)Nc1sc(Cc2ccccc2)c(C)c1C(N)=O	inactive
FC(F)(F)c1ccc2c(c1)C1C=CCC1C(c1ccncc1)N2 (stereo not given)	inactive
CCOC(=O)c1c(NC(=O)c2ccccc2N(C)S(=O)(=O)c2ccccc2)sc2c1CCCC2	inactive
CC(NC(=O)Nc1ccccn1)N1C(=O)C2C3C=CC(C3)C2C1=O (stereo not given)	inactive
C(=C\c1ccccc1)/CSc1nnc(-c2ccccn2)n1Cc1ccco1	inactive
N#CC(C#N)=C1C=CC=CN1/C(=C\c1ccco1)C(=O)c1ccccc1	inactive
O=C(NCc1ccccc1)C(=O)Nc1nc(C23CC4CC(CC(C4)C2)C3)cs1	inactive
O=C1c2ccccc2-c2onc3ccc(NCCCn4ccnc4)c1c23	inactive
O=C(Nc1cccc(-c2ccc3nncn3n2)c1)c1ccco1	inactive
Cc1ccc(-c2ccc(/C=C3\SC(N4CCOCC4)=NC3=O)o2)cc1	inactive
CC1=CC(=O)c2ccccc2C1=O	inactive
C/C(=N/NC(=O)c1cc(O)c(O)c(O)c1)c1ccc([N+](=O)[O-])cc1	inactive
Nc1c(C(=O)NCc2ccco2)sc2nc3c(cc12)C(=O)CCC3	inactive
COc1ccc(NC(=O)c2cccs2)cc1	inactive
CN(C)C(=O)N1CCC(C(=O)NC2CCCCCCC2)CC1	inactive
CCN(CC)c1ccc(NC(=O)c2ccc(=O)[nH]c2)cc1S(=O)(=O)Nc1ccccc1OC	inactive
CC1=C2C(CCS2(=O)=O)CC2(C1)C(=O)OC(C)(C)OC2=O (stereo not given)	inactive
O=C1c2ccccc2C(=O)c2cc(S(=O)(=O)Nc3ccccc3)ccc21	inactive

SMILES	percent span
CN1N=C(C(=O)N2CCCC(C(=O)c3cccc(C(F)(F)F)c3)C2)CCC1=O (stereo not given)	inactive
CCCCN(C(=O)CCC(=O)Nc1cc(C)on1)C(C(=O)NC(C)(C)C)c1cccc(OC)c1OC (stereo not given)	inactive
NC(=O)c1c(NC(=O)C2CCCO2)sc2c1CCCC2 (stereo not given)	inactive
CCN(CC)c1ccc(NC2=C(Cl)C(=O)c3ccccc3C2=O)cc1	inactive
CCC(=O)OCCNc1cc(Sc2nc3ccccc3s2)c2nonc2c1[N+](=O)[O-]	inactive
COc1ccc(S(=O)(=O)NCCOc2cccc3cccnc23)cc1OC	inactive
CC(C)Cc1cc(-c2ccco2)c(C#N)c(N)n1	inactive
Cc1nn(-c2ccc(Cl)c(Cl)c2)c(C)c1C(=O)O	inactive
CC1=NN(c2ccc(C)cc2)C(=O)/C1=C\c1ccc(Br)s1	inactive
Cc1[nH]n(C(N)=S)c(=O)c1N=Nc1ccc(S(=O)(=O)N2CCCCCC2)cc1	inactive
BrC(=C\c1ccccc1)/C=N/N1CCN(c2ccccc2)CC1	inactive
COc1ccc(C(=O)Nc2ccc(NC(=O)c3cccs3)cc2)cc1Cl	inactive
COc1ccc(N2C(=O)C(Cl)=C(Nc3ccccc3O)C2=O)cc1	inactive
COc1ccc2nc(C)cc(SCC(=O)N/N=C/c3ccc(O)cc3O)c2c1	inactive
O=C(O)c1cccc(NC2=C(Cl)C(=O)c3ccccc3C2=O)c1	inactive
Cc1cc(/C=C(/C#N)C(=O)Nc2ccc(Cl)cc2)c(C)n1-c1cccnc1	inactive
Clc1ccc(N=c2ssnc2Cl)nc1	inactive
CSc1nnc2ccc(-c3cccs3)nn12	inactive
COc1ccc(NC(=O)c2ccc(CN3CCN(c4ccccc4)CC3)cc2)cc1	inactive
CCN(CC)c1ccc(NC(=O)COc2ccccc2C#N)cc1S(=O)(=O)Nc1ccccc1OC	inactive
COc1ccc(-c2nnc(SCC(=O)Nc3nc4ccccc4s3)n2C)cc1	inactive
Cc1cc(-c2csc(N)n2)c(C)n1CCc1ccccc1	inactive
O=C1C(Cl)=C(Nc2ccccc2O)C(=O)N1c1ccccc1	inactive
CCOc1cc(NC(=S)NC)c(OCC)cc1NC(=O)c1ccc(OC)cc1	inactive
COc1ccc(NC(=O)c2ccc3c(c2)NC(=O)CS3)cc1S(=O)(=O)Nc1ccc(Br)cc1	inactive
Cc1ccccc1OCC(=O)N/N=C/c1ccccn1	inactive
O=C(NC1=C(Nc2ccc(F)cc2)C(=O)c2ccccc2C1=O)c1ccc(Cl)cc1	inactive

SMILES	percent span
Cc1ccc2c(c1)C1CN(C)CCC1N2C(=O)Nc1cccc(Cl)c1 (stereo not given)	inactive
CCCCC(=O)Nc1ccc(C(=O)N2CCC(C(=O)OCC)CC2)cc1	inactive
CCOC(=O)c1[nH]cnc1C(=O)NC(C)C	inactive
C=CS(=O)c1sc(Cl)c(N2CCOCC2)c1[N+](=O)[O-] (stereo not given)	inactive
O=C(O)CC1S/C(=N/N=C/C=C/c2ccccc2[N+](=O)[O-])NC1=O (stereo not given)	inactive
CNC(=O)c1c(N)sc2c1CCCCC2	inactive
COc1cccc(C(=O)/C=C/Nc2ccc(S(=O)(=O)Nc3onc(C)c3C)cc2)c1	inactive
COc1cc(/C=C2\SC(=S)NC2=O)ccc1OS(=O)(=O)c1ccccc1	inactive
O=C(/C=C/c1ccc(-c2ccccc2[N+](=O)[O-])o1)c1ccccc1	inactive
CC(C)(C)C1CCC(=NNC(=O)c2cc3c(s2)CCCC3)CC1 (stereo not given)	inactive
CCOc1ccc(C2=Nn3c(nnc3-c3ccco3)SC2)cc1	inactive
COc1ccccc1NC1=C(NC(C)=O)C(=O)c2ccccc2C1=O	inactive
Cc1ccc(OCc2cn3cccnc3n2)cc1	inactive
N#C/C(=C(/O)CN1CCN(c2ccccc2F)CC1)c1nc(-c2ccccc2)cs1	inactive
CC1=CC(=O)c2c(O)ccc(O)c2C1=O	inactive
CN1CCN(c2ccc(N)cc2)CC1	inactive
Cc1noc(C)c1COc1ccc(C(=O)Nc2cccnc2)cc1	inactive
Cc1ccc(Nc2nc(C)cs2)cc1	inactive
Cc1cc(NC(=O)CCSc2ccccc2)ccc1Br	inactive
CCN(CC)c1ccc(NC(=O)c2ccccc2Br)cc1S(=O)(=O)Nc1ccccc1OC	inactive
COC(=O)/C(=C/c1ccc(F)cc1)NC(C)=O	inactive
O=C(COc1ccccc1Br)NCc1ccccn1	inactive
COC(=O)c1[nH]c2ccccc2c1NC(=O)c1ccccc1[N+](=O)[O-]	inactive
Cc1ccc(-c2cc(C(=O)N3CCN(c4ncccn4)CC3)c3cc(Br)ccc3n2)o1	inactive
CCOc1ccc(-n2cc(-c3ccc(OC)c(OC)c3)[nH]c2=S)cc1	inactive
CN(C)[C@@H]1C(=O)C(C(=O)NCN2CCCC2)=C(O)[C@@]2(O)C(=O)C3=C(O)c4c(O)cccc4[C@@](C)(O)C3CC12 (stereo not given in full)	inactive
Cc1ccc(-c2cc(-c3ccccc3)c(C#N)c(N)n2)o1	inactive

SMILES	percent span
COc1ccccc1-n1c(-c2ccc(Cl)cc2)c[nH]c1=S	inactive
CCCCc1ccc(NC(=S)NCc2ccc(OC)cc2)cc1	inactive
CC1(C)Cc2c(ccc3ccccc23)/C(=C/C(=O)N2CCCCC2)N1	inactive
O=C(C[n+]1ccc(-c2nnc3n2CCC3)cc1)c1ccc(Cl)c(Cl)c1	inactive
C=CCn1c(C)cc(-c2csc(NC)n2)c1C	inactive
COc1ccccc1-n1c(-c2ccccc2)c[nH]c1=S	inactive
CCn1c(SCC(=O)Nc2ccc(C)cc2)nnc1-c1ccc(O)cc1	inactive
Cc1nc2ccccc2n1CSc1ccccc1	inactive
CCN(CC)C(=O)COC(=O)c1cc(-c2ccco2)nc2ccccc12	inactive
CCc1cccc(CC)c1NC(=S)N1CCn2cccc2C1c1cccnc1 (stereo not given)	inactive
O=C(NC1=NCCS1)NC12CC3CC(CC(C3)C1)C2	inactive
CCN(CC)c1ccc(Nc2nc(N3CCOCC3)c3ccccc3n2)cc1	inactive
CCN(CC)c1ccc(-c2nn3c(-c4cccnc4)nnc3s2)cc1	inactive
COC(=O)CCC(=O)Nc1sc(C)c(C)c1C(N)=O	inactive
O=C(O)c1ccc(NC2=C/C(=N/S(=O)(=O)c3ccccc3)c3ccccc3C2=O)cc1	inactive
CNCc1ccccc1Sc1ccc(O)c(O)c1	inactive
O=C(O)/C=C/C(=O)NNC(=O)c1ccc(Br)cc1	inactive
CC(=O)N1CCN(C(=O)c2ccc(-n3c(C)ccc3C)cc2)CC1	inactive
Cn1c(N)c(C(=O)COC(=O)c2cc(-c3ccco3)nc3ccccc23)c(=O)n(C)c1=O	inactive
Cc1cccc(NC(=S)N2CCn3cccc3C2c2cccnc2)c1 (stereo not given)	inactive
CN(CCCOc1ccccc1Br)Cc1ccccc1	inactive
Cc1cc(N/C(=N/S(=O)(=O)c2cc(F)ccc2F)c2ccccc2)n(-c2ccccc2)n1	inactive
CCOC(=O)c1nc(Nc2ccc(N3CCC(C)CC3)cc2)c2ccccc2n1	inactive
CN(Cc1ccccc1)C(=O)c1[nH]cnc1C(=O)N[C@@H](CCCCNC(=O)OC(C)(C)C)C(=O)OC(C)(C)C	inactive
